Test results from PubChem BioAssay (NCI).
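Five compound concentrations were applied to cells in 96-well plates for 48 hours; endpoints were derived by simple linear interpolation of the resulting dose-response curve. GI50 = concentration required for 50% inhibition of growth. TGI denotes the concentration required for complete inhibition of growth.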

Tests used:
Test in all cases: growth of human tumour cells (NCI), 48 h
[1] = system: CCRF-CEM leukemia
[2] = system: RPMI-8226 leukemia
[3] = system: U251 CNS
[4] = system: NCI-H23 lung
[5] = system: HCC-2998 colon
[6] = system: PC-3 prostate
[7] = system: SN12C renal
[8] = system: SK-OV-3 ovarian
[9] = system: UO-31 renal
[10] = system: SF-295 CNS
[11] = system: UACC-257 melanoma
[12] = system: EKVX NSCLC
[13] = system: OVCAR-3 ovarian
[14] = system: CAKI-1 renal
[15] = system: NCI-H460 lung
[16] = system: HT29 colon
[17] = system: NCI/ADR-RES ovarian
[18] = system: SR leukemia
[19] = system: SK-MEL-28 melanoma
[20] = system: NCI-H522 lung
[21] = system: SK-MEL-2 melanoma
[22] = system: RXF 393 renal
[23] = system: NCI-H226 lung
[24] = system: K-562 leukemia
[25] = system: OVCAR-5 ovarian
[26] = system: A498 renal
[27] = system: IGROV1 ovarian
[28] = system: OVCAR-4 ovarian

**Q.** Which results are given for `CC(C)(C)c1ccc(C(=O)Nc2sc3c(c2C#N)CCC(=O)C3)cc1`?
**A.** GI50 [1]: 69.7 nM; TGI [1]: > 100 µM; GI50 [2]: 90.2 nM; TGI [2]: 495 nM; GI50 [3]: 218 nM; TGI [3]: > 100 µM; GI50 [4]: 443 nM; TGI [4]: > 100 µM; GI50 [5]: 1250 nM; TGI [5]: > 100 µM; GI50 [6]: 139 nM; GI50 [7]: 611 nM; TGI [7]: > 53.5 µM; GI50 [8]: 2180 nM; TGI [8]: 9.94 µM; GI50 [9]: 224 nM; TGI [9]: 678 nM; GI50 [10]: 658 nM; TGI [10]: > 26.2 µM; GI50 [11]: 690 nM; TGI [11]: 3.47 µM; GI50 [12]: 1130 nM; TGI [12]: > 100 µM; GI50 [13]: 473 nM; TGI [13]: 1630 nM; GI50 [14]: 235 nM; TGI [14]: 793 nM; GI50 [15]: 890 nM; TGI [15]: > 26 µM; GI50 [16]: 505 nM; TGI [16]: 3.83 µM; GI50 [17]: 718 nM; TGI [17]: 5.75 µM; GI50 [18]: 149 nM; TGI [18]: > 38.1 µM; GI50 [19]: 704 nM; TGI [19]: 5.67 µM; GI50 [20]: 233 nM; TGI [20]: 1360 nM; GI50 [21]: 960 nM; TGI [21]: 2910 nM; GI50 [22]: 237 nM; TGI [22]: 796 nM; GI50 [23]: 991 nM; TGI [23]: 5.74 µM; GI50 [24]: 87.4 nM; TGI [24]: > 71.4 µM; GI50 [25]: 531 nM; TGI [25]: 5.78 µM; GI50 [26]: 1660 nM; TGI [26]: 5.58 µM; GI50 [27]: 657 nM; TGI [27]: > 20.4 µM; GI50 [28]: 223 nM; TGI [28]: 687 nM
